Experimental data: ChEMBL document CHEMBL1142160, “Overexpression and initial characterization of the chromosomal aminoglycoside 3'-O-phosphotransferase APH(3')-IIb from Pseudomonas aeruginosa” (2007)

Tests used:
Assay type in all cases: functional
Escherichia coli [1] = experiment: Antibacterial activity against Escherichia coli BL21(DE3)
Pseudomonas aeruginosa = experiment: Antibacterial activity against Pseudomonas aeruginosa ATCC 27853
Escherichia coli [2] = experiment: Antibacterial activity against Escherichia coli BL21(DE3) expressing Pseudomonas aeruginosa APH(3')-2b

GENTAMICIN gave an MIC (Escherichia coli [1]) of 6 µg/mL, an MIC (Pseudomonas aeruginosa) of 2 µg/mL and an MIC (Escherichia coli [2]) of 6 µg/mL.
